Reference: publication PMC11007702 (ACS Omega, 2024)

Tests used:
Format in all cases: biochemical
EGFR^WT = EGFR^WT (Homo sapiens, UniProt P00533); assay: in vitro EGFR kinase inhibition assay
VEGFR-2 = VEGFR-2 (Homo sapiens, UniProt P35968); assay: in vitro kinase inhibition
EGFR^T790M = EGFR^T790M (Homo sapiens, UniProt P00533, T790M); assay: in vitro EGFR kinase inhibition assay
EGFR^T790M, sequence (P00533 669-1210 T790M limits assumed): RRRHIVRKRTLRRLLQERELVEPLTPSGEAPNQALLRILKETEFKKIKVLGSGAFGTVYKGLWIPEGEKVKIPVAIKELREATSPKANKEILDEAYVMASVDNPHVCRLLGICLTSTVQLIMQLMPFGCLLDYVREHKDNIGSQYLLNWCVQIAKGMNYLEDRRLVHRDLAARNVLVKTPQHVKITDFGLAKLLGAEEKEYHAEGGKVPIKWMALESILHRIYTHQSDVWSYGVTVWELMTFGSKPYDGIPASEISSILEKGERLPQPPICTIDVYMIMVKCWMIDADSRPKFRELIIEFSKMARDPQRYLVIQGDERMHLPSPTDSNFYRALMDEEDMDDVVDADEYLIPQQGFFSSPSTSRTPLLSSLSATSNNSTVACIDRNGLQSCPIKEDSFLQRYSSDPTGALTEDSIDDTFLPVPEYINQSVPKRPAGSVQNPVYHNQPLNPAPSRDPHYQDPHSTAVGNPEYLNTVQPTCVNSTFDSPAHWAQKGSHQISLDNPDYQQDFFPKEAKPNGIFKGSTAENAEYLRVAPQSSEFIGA

EGFR^WT, sequence (P00533 25-1210): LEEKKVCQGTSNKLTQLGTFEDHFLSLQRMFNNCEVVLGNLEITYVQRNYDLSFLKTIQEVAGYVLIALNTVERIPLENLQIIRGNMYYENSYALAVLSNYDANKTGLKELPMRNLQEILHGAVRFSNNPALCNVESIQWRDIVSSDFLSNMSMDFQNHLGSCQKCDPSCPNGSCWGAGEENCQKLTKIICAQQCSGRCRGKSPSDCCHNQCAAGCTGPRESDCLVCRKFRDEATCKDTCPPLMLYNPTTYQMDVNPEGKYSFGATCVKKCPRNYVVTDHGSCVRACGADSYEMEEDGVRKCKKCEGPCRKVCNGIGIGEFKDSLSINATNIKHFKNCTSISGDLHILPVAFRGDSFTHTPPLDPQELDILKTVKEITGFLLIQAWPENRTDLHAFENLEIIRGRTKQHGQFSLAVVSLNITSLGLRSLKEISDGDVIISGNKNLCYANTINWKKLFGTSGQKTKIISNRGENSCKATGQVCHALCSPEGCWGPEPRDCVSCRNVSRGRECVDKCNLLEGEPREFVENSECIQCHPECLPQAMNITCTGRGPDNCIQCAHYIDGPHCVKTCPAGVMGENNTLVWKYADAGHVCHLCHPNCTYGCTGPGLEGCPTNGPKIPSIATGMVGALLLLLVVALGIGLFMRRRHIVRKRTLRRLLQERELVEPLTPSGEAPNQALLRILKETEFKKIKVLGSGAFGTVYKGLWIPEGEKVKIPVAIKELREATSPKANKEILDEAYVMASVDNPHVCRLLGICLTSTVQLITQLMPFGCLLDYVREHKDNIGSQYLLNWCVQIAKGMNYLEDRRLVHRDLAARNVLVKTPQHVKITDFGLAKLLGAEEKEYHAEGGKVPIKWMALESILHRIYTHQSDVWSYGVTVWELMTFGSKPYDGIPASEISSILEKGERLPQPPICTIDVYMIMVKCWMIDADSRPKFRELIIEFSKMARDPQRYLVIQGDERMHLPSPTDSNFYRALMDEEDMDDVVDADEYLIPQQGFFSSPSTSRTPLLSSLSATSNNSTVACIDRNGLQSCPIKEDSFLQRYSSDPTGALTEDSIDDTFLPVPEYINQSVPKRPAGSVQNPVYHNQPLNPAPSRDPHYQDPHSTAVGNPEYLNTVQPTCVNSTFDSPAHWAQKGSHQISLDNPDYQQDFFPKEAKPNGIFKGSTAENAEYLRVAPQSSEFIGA
VEGFR-2, sequence (P35968 20-1356): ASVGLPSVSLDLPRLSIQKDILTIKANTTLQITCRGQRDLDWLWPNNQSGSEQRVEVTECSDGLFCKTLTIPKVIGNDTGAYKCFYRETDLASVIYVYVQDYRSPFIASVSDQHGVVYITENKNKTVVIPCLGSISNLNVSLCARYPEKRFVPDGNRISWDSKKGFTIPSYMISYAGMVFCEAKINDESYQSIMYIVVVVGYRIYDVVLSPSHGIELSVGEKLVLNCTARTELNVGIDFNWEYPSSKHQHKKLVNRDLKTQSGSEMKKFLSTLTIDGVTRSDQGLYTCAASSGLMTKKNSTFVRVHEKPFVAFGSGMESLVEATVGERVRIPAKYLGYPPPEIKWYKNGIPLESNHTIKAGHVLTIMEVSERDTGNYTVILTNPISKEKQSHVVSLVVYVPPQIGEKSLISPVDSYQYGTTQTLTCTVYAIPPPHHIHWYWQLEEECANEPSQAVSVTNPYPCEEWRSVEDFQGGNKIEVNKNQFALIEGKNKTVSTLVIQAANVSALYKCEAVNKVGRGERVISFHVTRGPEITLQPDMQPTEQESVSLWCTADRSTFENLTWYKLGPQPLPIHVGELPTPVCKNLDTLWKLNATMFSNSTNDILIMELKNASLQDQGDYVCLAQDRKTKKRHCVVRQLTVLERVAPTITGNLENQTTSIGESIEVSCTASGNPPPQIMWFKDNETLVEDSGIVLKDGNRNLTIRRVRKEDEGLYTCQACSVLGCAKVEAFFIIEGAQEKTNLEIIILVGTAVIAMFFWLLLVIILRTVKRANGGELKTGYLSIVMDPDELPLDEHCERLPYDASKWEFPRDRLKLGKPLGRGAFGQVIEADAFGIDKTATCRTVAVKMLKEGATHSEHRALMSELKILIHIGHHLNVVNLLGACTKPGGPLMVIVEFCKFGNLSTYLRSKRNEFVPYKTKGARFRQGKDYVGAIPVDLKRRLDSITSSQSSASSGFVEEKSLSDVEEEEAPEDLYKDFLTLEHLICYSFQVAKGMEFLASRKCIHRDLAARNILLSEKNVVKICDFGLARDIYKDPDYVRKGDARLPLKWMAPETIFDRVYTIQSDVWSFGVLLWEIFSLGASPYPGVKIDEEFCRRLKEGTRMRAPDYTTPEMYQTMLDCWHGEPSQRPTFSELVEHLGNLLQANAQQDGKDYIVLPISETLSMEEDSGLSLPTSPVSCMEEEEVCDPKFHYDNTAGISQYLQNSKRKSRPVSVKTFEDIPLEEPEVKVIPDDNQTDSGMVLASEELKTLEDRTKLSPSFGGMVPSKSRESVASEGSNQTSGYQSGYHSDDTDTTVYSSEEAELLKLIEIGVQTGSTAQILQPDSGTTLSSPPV

Question: Which results are given for Cc1ccc(NC(=O)Cn2c(=O)c3c(ncn3C)n(C)c2=O)cc1 [T-1-PMPA, 2-(3,7-Dimethyl-2,6-dioxo-2,3,6,7-tetrahydro-1H-purin-1-yl)-N-(p-tolyl)acetamide]?
Answer: IC50 (EGFR^WT): 0.086 µM; IC50 (VEGFR-2): 2.07 µM; IC50 (EGFR^T790M): 0.562 µM
